According to article PMC8900816, “High-resolution structures of the bound effectors avadomide (CC-122) and iberdomide (CC-220) highlight advantages and limitations of the MsCI4 soaking system” (Acta Crystallographica. Section D, Structural Biology, 2022):

Molecular target: T1, MsCI4 (Magnetospirillum gryphiswaldense, UniProt A4TVL0)
T1 construct: gene MGR_0879; wild-type single-domain bacterial cereblon homologue; pETHis1a, E. coli C41(DE3); His tag removed with TEV; three monomers per asymmetric unit; structural zinc; RED-NHS amine-labelled for MST
T1 sequence (A4TVL0 1-124): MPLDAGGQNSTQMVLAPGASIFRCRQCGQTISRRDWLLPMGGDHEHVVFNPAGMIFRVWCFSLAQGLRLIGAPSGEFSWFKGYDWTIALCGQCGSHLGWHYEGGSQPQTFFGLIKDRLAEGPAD
Assay: labelled microscale thermophoresis
Assay type: binding
Settings: read-out: MsCI4 (K d, μM) / Labelled MST

Kd	Structure (SMILES)
4.84 ± 0.3 µM	Cc1nc2cccc(N)c2c(=O)n1[C@H]1CCC(=O)NC1=O [Avadomide]
0.409 ± 0.03 µM	O=C1CC[C@H](N2Cc3c(OCc4ccc(CN5CCOCC5)cc4)cccc3C2=O)C(=O)N1 [Iberdomide]
